Measurements taken from patent US8168656B2, “Indoleacetic acid and indenacetic acid derivatives as therapeutic agents with reduced gastrointestinal toxicity” (Vanderbilt University, priority 2009, dated 2012).
Read-outs that look alike come from different tables or passages of the source.

Tests used:
[1] = system: HCT-116 cells; assay: Cell viability assay (WST-1); format: cell-based; details: Homo sapiens
Experimental: (§1) RKO and HCT-116 cells (human colorectal cancer cell lines) were cultured in microtiter plates (tissue culture grade, 96-well flat) in a final volume of 100 μl culture medium containing 5-8×10^4 cells and the final concentrations of chemicals (1-500 μM). Cells were incubated in a humidified atmosphere for 8-24 hours. To the cultures, 10 μl of cell proliferation reagent, WST-1 (Roche Applied Science, Indianapolis, Ind., United States of America) was added, and reincubated for 1-2 hours. The absorbance of the samples was determined using a microtiter plate reader at a wavelength of 405-450 nm against background control. Reference wavelength was 620 nm. The tetrazolium salt, WST-1 (4-[3-(4-Iodophenyl)-2-(4-nitrophenyl)-2H-5-tetrazolio]-1,3-benzene disulfonate) was metabolized to formazan by the “succinate-tetrazolium reductase” system, which exists in mitochondria and is active only in viable cells. Thus, the formation of formazan (dark yellow color) is proportional to the viable cell numbers.
(§2) The generated data points were used to calculate ED50 values by creating a sigmoidal dose-response curve using non-linear regression. ED50 valued were calculated using the statistical analysis program PRISM® (GraphPad Software, Inc., San Diego, Calif., United States of America).

[2] = system: RKO cells; assay: Cell viability assay (WST-1); format: cell-based; details: Homo sapiens
Experimental: as §1, §2

[3] = concentration that reduces cell viability by 50%, read-out: ED50 HCT-116
[4] = concentration that reduces cell viability by 50%, read-out: ED50 RKO
[5] = second part of Table 9, read-out: ED50 HCT-116
[6] = second part of Table 9, read-out: ED50 RKO

EC50 [1, 3]	EC50 [1, 5]	Structure (SMILES)	EC50 [2, 4]	EC50 [2, 6]
> 3000 nM		CSc1ccc(/C=C2\C=C(CC(=O)NCc3cccc(Cl)c3)c3cc(F)ccc32)cc1 [Compound 21]	> 3000 nM	
1300 ± 200 nM		CSc1ccc(/C=C2\C=C(CC(=O)NCc3ccc(Br)cc3)c3cc(F)ccc32)cc1 [Compound 22]	670 ± 70 nM	
> 3000 nM		CSc1ccc(/C=C2\C=C(CC(=O)NCc3cccc(Br)c3)c3cc(F)ccc32)cc1 [Compound 23]	> 3000 nM	
> 3000 nM		CSc1ccc(/C=C2\C=C(CC(=O)NCc3ccc(C(F)(F)F)cc3)c3cc(F)ccc32)cc1 [Compound 24]	> 3000 nM	
> 3000 nM		CSc1ccc(/C=C2\C=C(CC(=O)NCc3cccc(C(F)(F)F)c3)c3cc(F)ccc32)cc1 [Compound 25]	> 3000 nM	
2100 ± 700 nM		CSc1ccc(/C=C2\C=C(CC(=O)NCc3ccc([N+](=O)[O-])cc3)c3cc(F)ccc32)cc1 [Compound 26]	540 ± 70 nM	
> 3000 nM		CSc1ccc(/C=C2\C=C(CC(=O)NCc3cccc([N+](=O)[O-])c3)c3cc(F)ccc32)cc1 [Compound 27]	> 3000 nM	
> 3000 nM		CSc1ccc(/C=C2\C=C(CC(=O)NCc3ccccc3[N+](=O)[O-])c3cc(F)ccc32)cc1 [Compound 28]	> 3000 nM	
180 ± 40 nM		CSc1ccc(/C=C2\C=C(CC(=O)NCc3ccc(C(=O)c4ccccc4)cc3)c3cc(F)ccc32)cc1 [Compound 30]	40 ± 20 nM	
	6000 ± 1000 nM	C[S+]([O-])c1ccc(/C=C2\C=C(CC(=O)NCc3ccccc3)c3cc(F)ccc32)cc1 (stereo not drawn) [Compound 32]		2400 ± 200 nM

The next lines start with the compound.

Structure (SMILES)	EC50 [1, 3]	EC50 [1, 5]	EC50 [2, 4]	EC50 [2, 6]
[N-]=[N+]=NCc1ccc(/C=C2\C=C(CC(=O)NCc3ccc(C4(c5ccccc5)CO4)cc3)c3cc(F)ccc32)cc1 (stereo not drawn) [Compound 29]	> 3000 nM		> 3000 nM	
[N-]=[N+]=NCc1ccc(/C=C2\C=C(CC(=O)NCc3ccc(NC(=O)CBr)cc3)c3cc(F)ccc32)cc1 [Compound 31]	> 3000 nM		> 3000 nM	
CS(=O)(=O)c1ccc(/C=C2\C=C(CC(=O)NCc3ccccc3)c3cc(F)ccc32)cc1 [Compound 33]		1200 ± 300 nM		800 ± 100 nM
O=C(CC1=C/C(=C\c2ccccc2)c2ccc(F)cc21)NCc1ccccc1 [Compound 34]				5400 ± 500 nM
COc1ccc(/C=C2\C=C(CC(=O)NCc3ccccc3)c3cc(F)ccc32)cc1 [Compound 35]		1000 ± 800 nM		700 ± 100 nM
O=C(O)CC1=C/C(=C\c2ccc(C(=O)O)cc2)c2ccc(F)cc21 [Compound 36]				6400 ± 600 nM
O=C(O)CC1=C/C(=C\c2ccc(Br)cc2)c2ccc(F)cc21 [Compound 37]				> 10000 nM
O=C(CC1=C/C(=C\C2CCCCC2)c2ccc(F)cc21)NCc1ccccc1 [Compound 38]				6700 ± 100 nM
COc1ccc2c(c1)c(CC(=O)O)c(C)n2C(=O)c1ccc(Cl)cc1 [Indomethacin, indomethacin, reference compound]	449000 ± 97600 nM		162000 ± 11000 nM	
CSc1ccc(/C=C2/C(C)=C(CC(=O)O)c3cc(F)ccc32)cc1 [Sulindac sulfide, reference compound]	109000 ± 10000 nM		98200 ± 1400 nM	
